Patent US20020137929A1, “1 - (3-heterocyclylphenyl) isothiourea, -isourea, -guanidine and -amidine herbicidal agents” (Intellectual Property Department, BASF Aktiengesellschaft, priority 1998, published 2002)

Tests used:
[1] = test system: SETVI (Foxtail, Green); test: Preemergence herbicidal evaluation; assay type: in vivo, Setaria viridis; conditions: rated 4-5 weeks after treatment, rating scale 0-9
Summary of the method: (§1)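 Steps: mix seeds into potting soil; plant atop ~1 inch soil; spray compound in aqueous acetone (~0.0156-0.500 kg/ha equivalent); maintain in greenhouse with watering; rate visually 0-9 versus control at 4-5 weeks.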

[2] = test system: AMBEL (Ragweed, Common); test: Preemergence herbicidal evaluation; assay type: in vivo, Ambrosia artemisifolia; conditions: rated 4-5 weeks after treatment, rating scale 0-9
Summary of the method: as §1

[3] = test system: GALAP (Galium); test: Preemergence herbicidal evaluation; assay type: in vivo, Galium aparine; conditions: rated 4-5 weeks after treatment, rating scale 0-9
Summary of the method: as §1

[4] = test system: CASOB (Sicklepod); test: Preemergence herbicidal evaluation; assay type: in vivo, Cassia obtusifolia; conditions: rated 4-5 weeks after treatment, rating scale 0-9
Summary of the method: as §1

[5] = test system: IPOHE (Morningglory, Ivyleaf); test: Postemergence herbicidal evaluation; assay type: in vivo, Ipomoea hederacea; conditions: postemergence
Summary of the method: (§2)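 Two-week-old seedlings sprayed with compound in 50/50 acetone/water plus 0.5% TWEEN 20, at about 0.0156 to 0.500 kg/ha, nozzle at 40 psi. Kept in greenhouse; rated visually 4-5 weeks after treatment on a 0-9 scale versus control, repeat tests averaged.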

[6] = test system: GLXMAW (Soybean, Williams); test: Preemergence herbicidal evaluation; assay type: in vivo, Glycine max, (L.) Merr. cv Williams; conditions: rated 4-5 weeks after treatment, rating scale 0-9
Summary of the method: as §1

[7] = test system: GLXMAW (Soybean, Williams); test: Postemergence herbicidal evaluation; assay type: in vivo, Glycine max, (L.) Merr. cv Williams; conditions: postemergence
Summary of the method: as §2

[8] = test system: ABUTH (Velvetleaf); test: Preemergence herbicidal evaluation; assay type: in vivo, Abutilon theophrasti; conditions: rated 4-5 weeks after treatment, rating scale 0-9
Summary of the method: as §1

[9] = test system: ECHCG (Barnyardgrass); test: Preemergence herbicidal evaluation; assay type: in vivo, Echinochloa crus-galli; conditions: rated 4-5 weeks after treatment, rating scale 0-9
Summary of the method: as §1

[10] = test system: AMBEL (Ragweed, Common); test: Postemergence herbicidal evaluation; assay type: in vivo, Ambrosia artemisifolia; conditions: postemergence
Summary of the method: as §2

[11] = test system: CYPSE (Flatsedge); test: Preemergence weed control under flooded paddy conditions; assay type: in vivo, Cyperus serotinus; conditions: 0.2500 kg/ha, rated 3-4 weeks after treatment
Summary of the method: (§3)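 Seeds or propagules sown in top 0.5 cm of silt loam soil, flooded 1.5 to 3 cm above surface throughout. Compound in 50/50 v/v aqueous/acetone pipetted into flood water at about 0.0313 to 0.500 kg/ha. Visual 0-9 rating versus control after three to four weeks in greenhouse.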

[12] = test system: ZEAMX (Corn, Field); test: Postemergence herbicidal evaluation; assay type: in vivo, Zea mays; conditions: postemergence
Summary of the method: as §2

[13] = test system: SAGPY (Arrowhead (Pygmaea)); test: Preemergence weed control under flooded paddy conditions; assay type: in vivo, Sagittaria pygmaea; conditions: 0.2500 kg/ha, rated 3-4 weeks after treatment
Summary of the method: as §3

SMILES: CCOC(=O)CN1C(=O)C(COC)SC1=Nc1cc(-n2c(=O)cc(C(F)(F)F)n(C)c2=O)c(F)cc1Cl (centres unmarked) [Compound 156, Ethyl 2-{{2-chloro-5-[3,6-dihydro-3-methyl-2,6-dioxo-4-(trifluoromethyl)-1(2H)-pyrimidinyl]-4-fluorophenyl}imino}-5-(methoxymethyl)-4-oxo-3-thiazolidine-acetate]
- Preemergence herbicidal rating SETVI ([1]; rate 0.0313 kg/ha): 0.0
- Preemergence herbicidal rating SETVI ([1]; rate 0.0625 kg/ha): 2.0
- Preemergence herbicidal rating SETVI ([1]; rate 0.1250 kg/ha): 2.0
- Preemergence herbicidal rating SETVI ([1]; rate 0.2500 kg/ha): 9.0
- Preemergence herbicidal rating AMBEL ([2]; rate 0.0313 kg/ha): 0.0
- Preemergence herbicidal rating AMBEL ([2]; rate 0.0625 kg/ha): 0.0
- Preemergence herbicidal rating AMBEL ([2]; rate 0.1250 kg/ha): 5.0
- Preemergence herbicidal rating AMBEL ([2]; rate 0.2500 kg/ha): 9.0
- Preemergence herbicidal rating GALAP ([3]; rate 0.0313 kg/ha): 0.0
- Preemergence herbicidal rating GALAP ([3]; rate 0.0625 kg/ha): 4.0
- Preemergence herbicidal rating GALAP ([3]; rate 0.1250 kg/ha): 4.0
- Preemergence herbicidal rating GALAP ([3]; rate 0.2500 kg/ha): 9.0
- Preemergence herbicidal rating CASOB ([4]; rate 0.0313 kg/ha): 0.0
- Preemergence herbicidal rating CASOB ([4]; rate 0.0625 kg/ha): 0.0
- Preemergence herbicidal rating CASOB ([4]; rate 0.2500 kg/ha): 0.0
- Herbicidal rating IPOHE ([5]; rate 0.0156 kg/ha): 9.0
- Herbicidal rating IPOHE ([5]; rate 0.0313 kg/ha): 9.0
- Herbicidal rating IPOHE ([5]; rate 0.0625 kg/ha): 9.0
- Preemergence herbicidal rating GLXMAW ([6]; rate 0.0313 kg/ha): 0.0
- Preemergence herbicidal rating GLXMAW ([6]; rate 0.0625 kg/ha): 0.0
- Preemergence herbicidal rating GLXMAW ([6]; rate 0.1250 kg/ha): 0.0
- Preemergence herbicidal rating GLXMAW ([6]; rate 0.2500 kg/ha): 7.0
- Herbicidal rating GLXMAW ([7]; rate 0.0156 kg/ha): 5.5
- Herbicidal rating GLXMAW ([7]; rate 0.0313 kg/ha): 4.0
- Herbicidal rating GLXMAW ([7]; rate 0.0625 kg/ha): 5.5
- Preemergence herbicidal rating ABUTH ([8]; rate 0.0313 kg/ha): 4.0
- Preemergence herbicidal rating ABUTH ([8]; rate 0.0625 kg/ha): 9.0
- Preemergence herbicidal rating ABUTH ([8]; rate 0.1250 kg/ha): 9.0
- Preemergence herbicidal rating ABUTH ([8]; rate 0.2500 kg/ha): 9.0
- Preemergence herbicidal rating ECHCG ([9]; rate 0.0313 kg/ha): 0.0
- Preemergence herbicidal rating ECHCG ([9]; rate 0.0625 kg/ha): 0.0
- Preemergence herbicidal rating ECHCG ([9]; rate 0.1250 kg/ha): 0.0
- Preemergence herbicidal rating ECHCG ([9]; rate 0.2500 kg/ha): 0.0
- Herbicidal rating AMBEL ([10]; rate 0.0156 kg/ha): 7.0
- Herbicidal rating AMBEL ([10]; rate 0.0313 kg/ha): 7.0
- Herbicidal rating AMBEL ([10]; rate 0.0625 kg/ha): 9.0
- herbicidal effect rating, CYPSE [11]: 0.0
- Herbicidal rating ZEAMX ([12]; rate 0.0156 kg/ha): 4.5
- Herbicidal rating ZEAMX ([12]; rate 0.0313 kg/ha): 4.5
- Herbicidal rating ZEAMX ([12]; rate 0.0625 kg/ha): 4.5
- herbicidal effect rating, SAGPY [13]: 0.0
